Results as given in patent EP2204398A1, “CA[…] DERIVATIVE AND USES OF THE SAME” (NanoCarrier Co., Ltd., priority 2008, dated 2009).

Key:
[1] = Test for blood kinetics in rat (CPT concentration in blood plasma by HPLC); type: in vivo, male Wister rat; settings: tail vein, camptothecin in DMSO, administered in the same manner, n=1
Procedure: In a sample vial, 50 mg of the complex obtained in Example 1 which was weighed precisely was placed, and 1 mL of purified water was added thereto, followed by suspending the polymer. The resulting suspension was stirred for one day and night, and sonicated using Biodisruptor (Nihonseiki Kaisha Ltd., High Power Unit) with ice cooling for 10 minutes, followed by filtration through a 0.22 µm filter (Millipore, MILLEX (registered trademark) GP PES) and recovery of the resulting filtrate. […]
To 30 µL of the collected rat blood plasma, 100 µL of acetonitrile and 20 µL of 10 mM HCl were sequentially added, and the resulting mixture was stirred. […] The filtrate was filled in an HPLC sample vial, and the concentration of free CPT in the blood plasma was determined.
The HPLC conditions were as followed. Unless otherwise specified, the HPLC analysis of CPT was carried out under the same conditions. • System: Waters Alliance System • Column: Tosoh TSK-gel ODS-80TM (Φ4.6 × 150 mm) (40°C) • Mobile phase: 25 mM ammonium formate buffer (pH 3.0)/acetonitrile=70/30 • Flow rate: 1 mL/min. • Detection: fluorescence (Ex: 370 nm, Em: 420 nm) Injection volume: 20 µL

[2] = system: Human Prostate Cancer PC-3 Cells; experiment: Test for pharmacological effect using human prostate cancer PC-3 cells - 1 (tumor volume); type: in vivo, male nude mice; settings: CPT DMSO solution 7 mg/kg, tail vein, 3 times at intervals of 4 days, n=7
Procedure: (§1) PC-3 cells (purchased from ATCC via Summit Pharmaceuticals International Corporation; which provision is also applied hereinafter) were cultured using RPMI1640 + 10% FBS medium under 5% CO2 at 37°C to allow their growth to attain the cell number required for transplantation. The cells were suspended in physiological saline and subcutaneously inoculated to the back of male nude mice [Blab nu/nu, 8 weeks old, Charles River Laboratories Japan] such that the dose of 3 × 10^6 cells/100 µL per mouse was attained. Thereafter, the nude mice were kept for 7 days, and when the tumor volume reached 83.3 t 6.2 mm^3 (average ± SE, wherein SE indicates standard error; which provision is also applied hereinafter), administration of drugs were started. A total of 3 times of administration through the tail vein at intervals of 4 days were scheduled, and changes in the tumor volume and body weight with time were measured for 3 groups (n=7), that is, (1) control (untreated); (2) the CPT DMSO solution 7 mg/kg; and (3) PEG-pAsp-CPT 3 mg/kg (the dose is based on the amount of camptothecin (mg/kg/injection)). The major diameter (a mm) and the minor diameter (b mm) of each tumor were measured using an electronic caliper (Mitutoyo Corporation), and the tumor volume was calculated according to the following equation.
(§2) Tumor volume (mm^3) = a × b^2 /2 [formula] […]

[3] = Changes in body weight in PC-3 tumor-bearing animals, test 1; type: in vivo, male nude mice; settings: CPT DMSO solution 7 mg/kg, tail vein, 3 times at intervals of 4 days, n=7
Procedure: as §1, §2

CC[C@@]1(O)C(=O)OCc2c1cc1n(c2=O)Cc2cc3ccccc3nc2-1 [CPT solution, camptothecin]
blood concentration [1]: decreased rapidly | tumor growth inhibition effect in comparison with the control group [2]: hardly observed | body weight decrease at maximum [3]: ≥ 10%
